Source: PMC12670426 (Journal of Medicinal Chemistry, 2025)
Where two headings read alike, the source gives them in different places.

How the values were obtained:
[1] = molecular target: T1, human galectin-1 (Gal-1, full length) (Homo sapiens, UniProt P09382); test: Competitive fluorescence polarization assay, Gal-1; type: binding
T1 construct: Gal-1 is a prototype galectin consisting of a single CRD and was used in full length; 6xHis tag with TEV protease site (N, cleaved yes); made in house; host or cells: BL21 Escherichia coli (pET-15b)
Description: (§1) Our investigation of the structure–activity relationship of N-aryl-N-lactosylamides started with an initial screening of substituted acetanilides (Table ). These compounds can be readily synthesized from a wide range of commercially available substituted anilines. Affinity was evaluated using a fluorescence polarization assay, which enables reliable determination of dissociation constants (K d) between small molecules and galectins. All inhibitors in this series were tested against the two most common human galectins: Gal-1 and Gal-3. Gal-1 is a prototype galectin consisting of a single CRD and was used in full length. In the case of Gal-3, which consists of the C-terminal CRD and N-terminal unfolded region, only the C-terminal domain was used (Gal-3C). Affinities were compared to methyl β-lactoside (β-LacOMe) as a baseline.
(§2) Fluorescence polarization experiments for determining inhibitor affinities were performed using the same instrumentation and settings as described for the direct binding experiments. […] The galectin–probe mixture was subsequently added using a Certus Flex liquid handler (Fritz Gyger AG, Switzerland) to reach a final volume of 5 μL. Anisotropy was measured after 30–60 min incubation at 25 °C. Inhibitor dissociation constants (K d) were calculated using Wang’s exact cubic model for competitive binding implemented in the BindCurve package. Protein and probe concentrations used in these competitive experiments are provided in the Supporting Information.
(§3) Competitive binding was modeled by Wang’s exact cubic model,3 which is written as […]
(§4) r = rmin + (rmax − rmin) 3 (6) […]
(§5) where r, rmin and rmax have the same meaning as in Equation 1. The coefficients a, b, and c are […]
(§6) a = Kd∗ + Kd + [L∗]T + [L]T − [R]T (7) b = Kd∗([L]T − [R]T) + Kd([L∗]T − [R]T) + Kd∗ Kd (8) […]
(§7) where Kd∗ is the dissociation constant of the probe, Kd is the dissociation constant of the […]
(§8) the unlabeled ligand, and [R]T is the total concentration of the receptor. The angle θ is defined […]
(§9) In the competitive binding experiments, the values of [L∗]T, [R]T and Kd∗ are known and [L]T is titrated. The values of minimal and maximal anisotropy rmin and rmax were fixed during fitting at the values of the minimal and maximal asymptotes obtained from the direct binding experiments. The value of Kd was calculated as the only unfixed parameter in the model.
(§10) Experimental constants used for the competitive fluorescence polarization experiments are […]
(§11) Table S2. Experimental constants used for competitive fluorescence polarization experiments. […]

[2] = molecular target: T2, human galectin-3C (Gal-3C, C-terminal CRD of galectin-3) (Homo sapiens, UniProt P17931); test: Competitive fluorescence polarization assay, Gal-3C; type: binding
T2 construct: only the C-terminal domain was used (Gal-3C); 6xHis tag with TEV protease site (N, cleaved yes); made in house; host or cells: BL21 Escherichia coli (pET-15b)
Description: as §1, §2, §3, §4, §5, §6, §7, §8, §9, §10, §11

T2 sequence (P17931 118-248 limits assumed): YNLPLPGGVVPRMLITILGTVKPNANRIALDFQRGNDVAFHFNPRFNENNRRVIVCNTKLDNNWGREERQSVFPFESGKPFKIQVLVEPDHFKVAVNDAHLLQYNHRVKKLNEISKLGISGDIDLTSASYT
T1 sequence (P09382 2-135): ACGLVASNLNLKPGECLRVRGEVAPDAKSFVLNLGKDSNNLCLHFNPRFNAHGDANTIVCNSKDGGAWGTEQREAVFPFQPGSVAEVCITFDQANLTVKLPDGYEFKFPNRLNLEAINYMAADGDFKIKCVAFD

## CO[C@@H]1O[C@H](CO)[C@@H](O[C@@H]2O[C@H](CO)[C@H](O)[C@H](O)[C@H]2O)[C@H](O)[C@H]1O [β-LacOMe, methyl β-lactoside, reference compound]
[1]; CSV supplement, unrounded mean, read-out: Gal1_IC50_mean_uM
  IC50: 1640 µM
[1]; CSV supplement, unrounded mean, read-out: Gal1_Kd_mean_uM
  Kd: 770 µM
[1]; competitive fluorescence polarization, mean ± SD, read-out: Kd Gal-1
  Kd: 770 ± 200 µM
[1]; four-parameter logistic model, mean ± SD, read-out: IC50 Gal-1
  IC50: 1600 ± 70 µM
[2]; CSV supplement, unrounded mean, read-out: Gal3C_IC50_mean_uM
  IC50: 756 µM
[2]; CSV supplement, unrounded mean, read-out: Gal3C_Kd_mean_uM
  Kd: 234 µM
[2]; competitive fluorescence polarization, mean ± SD, read-out: Kd Gal-3C
  Kd: 230 ± 20 µM
[2]; four-parameter logistic model, mean ± SD, read-out: IC50 Gal-3C
  IC50: 760 ± 90 µM
